Assay results from patent US20240327334A1, “Covalent Inhibitors As Antiviral Agents” (Enanta Pharmaceuticals, Inc., priority 2022, published 2024).

Experiments:
[1] = target: SARS-CoV-2 Papain-like (PLpro) protease (Severe acute respiratory syndrome coronavirus 2, UniProt P0DTD1); assay: SARS-CoV-2 Papain-like (PLpro) protease biochemical enzyme inhibition assay (ubiquitin-fluorophore substrate, Ub-R110); settings: Ub-R110 substrate; run in duplicate; read-out: PLpro IC50
[2] = system: SARS-CoV-2 replicon; assay: microbe, parasite or virus in culture; type: cell-based; settings: Severe acute respiratory syndrome coronavirus 2, Huh-7

| SMILES | IC50 [1] | EC50 [2] |
| --- | --- | --- |
| COc1cc(C2(NC(=O)c3ccccc3CNC(=O)C(=O)N[C@@H](C)C#Cc3ccc(C#N)cc3OC(F)(F)F)CC2)cc2cn(C3CC3)nc12 [Example 216] | < 0.1 µM | < 1 µM |
| O=C(NCC#Cc1cscn1)C(=O)NCc1ccccc1C(=O)NC1(c2ccc3ccccc3c2)CC1 [Example 165] | < 0.1 µM | 1 to 10 µM |
| N#CCNC(=O)C(=O)NCc1ccc(C#N)cc1C(=O)NC1(c2ccc(F)c3ccccc23)CC1 [Example 55] | < 0.1 µM | 1 to 10 µM |
| N#CCNC(=O)C(=O)NCc1ccccc1C(=O)NC1(c2cc(-c3ccn(C4CC4)n3)cc(F)c2F)CC1 [Example 306] | < 0.1 µM | < 1 µM |
| COc1ccc2cccc(C3(NC(=O)c4ccccc4CNC(=O)C(=O)NCC#N)CC3)c2c1 [Example 348] | < 0.1 µM | 1 to 10 µM |
| O=C(NCC#Cc1ccc(Cl)nn1)C(=O)NCc1ccccc1C(=O)NC1(c2ccc3ccccc3c2)CC1 [Example 199] | < 0.1 µM | < 1 µM |
| C#CCNC(=O)C(=O)NCc1ccccc1C(=O)NC1(c2cc(F)c(F)c(-c3cnn(C4CC4)c3)c2)CC1 [Example 242] | < 0.1 µM | < 1 µM |
| C[C@@H](NC(=O)c1ccccc1CNC(=O)C(=O)NCC#Cc1nccs1)c1cc(F)cc(-c2cnn(C(F)F)c2)c1 [Example 492] | < 0.1 µM | < 1 µM |
| N#CCNC(=O)C(=O)NCc1ccc(OCCO)cc1C(=O)NC1(c2cccc3ccccc23)CC1 [Example 320] | < 0.1 µM | < 1 µM |
| N#CCNC(=O)C(=O)NCc1ccccc1C(=O)NC1(c2cc(F)c(F)c(-c3cnn(C4CC4)c3)c2)CC1 [Example 240] | < 0.1 µM | > 10 µM |
| C[C@@H](C#Cc1nccs1)NC(=O)C(=O)NCc1ccccc1C(=O)NC1(c2ccc3c(cnn3C)c2)CC1 [Example 346] | < 0.1 µM | < 1 µM |
| N#CCNC(=O)C(=O)NCc1ccccc1C(=O)NC1(c2cc(F)cc(-c3cccs3)c2)CC1 [Example 220] | < 0.1 µM | 1 to 10 µM |
| C#CCNC(=O)C(=O)NCc1ccccc1C(=O)NC1(c2cccc3nn(C)cc23)CC1 [Example 342] | < 0.1 µM | < 1 µM |
| N#CCNC(=O)C(=O)NCc1ccccc1C(=O)NC1(c2cc(C(F)(F)F)nc3ccccc23)CC1 [Example 90] | < 0.1 µM | 1 to 10 µM |
| N#CCNC(=O)C(=O)NCc1cnccc1C(=O)NC1(c2cccc3ccccc23)CC1 [Example 366] | < 0.1 µM | 1 to 10 µM |
| C[C@@H](C#Cc1nccs1)NC(=O)C(=O)NCc1ccccc1C(=O)N[C@H](C)c1cc(F)cc(-c2cnn(C3CC3)c2)c1 [Example 495] | < 0.1 µM | < 1 µM |
| C#CCNC(=O)C(=O)NCc1ccccc1C(=O)NC1(c2cc(-c3cnn(C4CC4)c3)ccc2Cl)CC1 [Example 384] | < 0.1 µM | < 1 µM |
| C[C@@H](C#Cc1ccc(C#N)cc1C(F)(F)F)NC(=O)C(=O)NCc1ccccc1C(=O)NC1(c2ccc3nn(C)cc3c2)CC1 [Example 109] | < 0.1 µM | < 1 µM |
| COc1ccc(C2(NC(=O)c3ccccc3CNC(=O)C(=O)NCC#Cc3nccs3)CC2)cc1-c1cnn(C2CC2)c1 [Example 247] | < 0.1 µM | < 1 µM |
| Cc1cc(C)nc(C#CCNC(=O)C(=O)NCc2ccccc2C(=O)NC2(c3ccc4ccccc4c3)CC2)n1 [Example 178] | < 0.1 µM | < 1 µM |

| SMILES | IC50 [1] | EC50 [2] |
| --- | --- | --- |
| N#CCNC(=O)C(=O)NCc1ccccc1C(=O)NC1(c2cccc(C(F)(F)F)c2Cl)CC1 [Example 370] | 0.1 to 1 µM | 1 to 10 µM |
| O=C(NCC#Cc1nccs1)C(=O)NCc1ccccc1C(=O)NC1(c2cccc(-c3cnn(C4CC4)c3)c2Cl)CC1 [Example 385] | < 0.1 µM | < 1 µM |
| CC(C)(O)c1cccc(-c2cc(C3(NC(=O)c4ccccc4CNC(=O)C(=O)NCC#N)CC3)c3ccccc3c2)n1 [Example 283] | < 0.1 µM | < 1 µM |
| O=C(NCC#Cc1nccs1)C(=O)NCc1ccccc1C(=O)NC1(c2cc(F)cc(-c3cnn(C(F)F)c3)c2)CC1 [Example 81] | < 0.1 µM | < 1 µM |
| CC(C)(C)OC(=O)/C=C/CNC(=O)C(=O)NCc1ccccc1C(=O)NC1(c2cccc3ccccc23)CC1 [Example 571] | 0.1 to 1 µM | 1 to 10 µM |
| N#CCNC(=O)C(=O)NCc1ccccc1C(=O)NC1(c2ccc3c4c(cccc24)C(=O)N3)CC1 [Example 434] | < 0.1 µM | 1 to 10 µM |
| N#CN1CC[C@@H](CNC(=O)C(=O)NCc2ccccc2C(=O)NC2(c3cccc4ccccc34)CC2)C1 [Example 509] | < 0.1 µM | < 1 µM |
| C#CCNC(=O)C(=O)NCc1ccccc1C(=O)NC1(c2cc(Cl)cc(-c3cncs3)c2)CC1 [Example 447] | < 0.1 µM | < 1 µM |
| N#CCNC(=O)C(=O)NCc1ccccc1C(=O)NC1(c2cccc(-c3ccc(F)cc3)c2Cl)CC1 [Example 380] | 0.1 to 1 µM | > 10 µM |
| N#CCNC(=O)C(=O)NCc1ccccc1C(=O)NC1(c2cc(Cl)cc(-c3cnn(C4CC4)c3)c2)CC1 [Example 454] | < 0.1 µM | 1 to 10 µM |
| CC(C)(O)Cn1cc(-c2cc(C3(NC(=O)c4ccccc4CNC(=O)C(=O)NCC#N)CC3)c3ccccc3c2)cn1 [Example 353] | < 0.1 µM | < 1 µM |
| O=C(NC/C=C/C(=O)N1CCCO1)C(=O)NCc1ccccc1C(=O)NC1(c2cccc3ccccc23)CC1 [Example 568] | 0.1 to 1 µM | 1 to 10 µM |
| C#CCNC(=O)C(=O)NCc1ccccc1C(=O)NC1(c2cc(Cl)cc(-c3cnco3)c2)CC1 [Example 450] | < 0.1 µM | < 1 µM |
| C#CCNC(=O)C(=O)NCc1ccccc1C(=O)NC1(c2cccc3nc(Cl)ccc23)CC1 [Example 387] | < 0.1 µM | < 1 µM |
| O=C(NCC#Cc1nccs1)C(=O)NCc1ccccc1C(=O)NC1(c2cc(Cl)cc(-c3cncs3)c2)CC1 [Example 446] | < 0.1 µM | < 1 µM |
| C[C@@H](C#Cc1nccs1)NC(=O)C(=O)NCc1ccccc1C(=O)N[C@H](C)c1cc(F)cc(-c2cnn(C(F)F)c2)c1 [Example 496] | < 0.1 µM | < 1 µM |
| COc1cc(C2(NC(=O)c3ccccc3CNC(=O)C(=O)N[C@@H](C)C#Cc3ncccn3)CC2)cc2cn(C3CC3)nc12 [Example 532] | < 0.1 µM | < 1 µM |
| CN1CCC(n2cc(-c3cc(F)cc(C4(NC(=O)c5ccccc5CNC(=O)C(=O)NCC#Cc5nccs5)CC4)c3)cn2)CC1 [Example 255] | < 0.1 µM | < 1 µM |
| Cn1cc2cc(C3(NC(=O)c4ccccc4CNC(=O)C(=O)NCC#N)CC3)ccc2n1 [Example 341] | 0.1 to 1 µM | > 10 µM |
| O=C(NCC#Cc1nccs1)C(=O)NCc1ccccc1C(=O)NC1(c2cc(-c3ccn(C(F)F)n3)cc(F)c2F)CC1 [Example 296] | < 0.1 µM | < 1 µM |

| SMILES | IC50 [1] | EC50 [2] |
| --- | --- | --- |
| C[C@@H](NC(=O)c1ccccc1CNC(=O)C(=O)NCC#N)c1cc(-c2cnn(C(F)F)c2)cc(C(F)(F)F)c1 [Example 463] | 0.1 to 1 µM | 1 to 10 µM |
| Cc1nn(C)cc1-c1cc(F)cc(C2(NC(=O)c3ccccc3CNC(=O)C(=O)NCC#Cc3ncccc3Cl)CC2)c1 [Example 259] | < 0.1 µM | < 1 µM |
| O=C(NCC#Cc1cncnc1)C(=O)NCc1ccccc1C(=O)NC1(c2ccc3ccccc3c2)CC1 [Example 166] | < 0.1 µM | < 1 µM |
| Cc1nn(C)cc1-c1cc(F)cc(C2(NC(=O)c3ccccc3CNC(=O)C(=O)NCC#N)CC2)c1 [Example 233] | < 0.1 µM | > 10 µM |
| CC(C)(O)c1ncc(-c2cc(C3(NC(=O)c4ccccc4CNC(=O)C(=O)NCC#N)CC3)c3ccccc3c2)s1 [Example 287] | < 0.1 µM | < 1 µM |
| C#CCNC(=O)C(=O)NCc1ccccc1C(=O)NC1(c2cc(F)cc(-c3cnn(C4CC4)c3)c2F)CC1 [Example 311] | < 0.1 µM | < 1 µM |
| Cn1cc2cc(C3(NC(=O)c4ccccc4CNC(=O)C(=O)NCC#Cc4ccc(S(C)(=O)=O)cc4F)CC3)ccc2n1 [Example 147] | < 0.1 µM | < 1 µM |
| N#CCNC(=O)C(=O)NCc1ccccc1C(=O)NC1(c2cc(N3CC(O)C3)cc3ccccc23)CC1 [Example 330] | < 0.1 µM | 1 to 10 µM |
| O=C(/C=C/CNC(=O)C(=O)NCc1ccccc1C(=O)NC1(c2cccc3ccccc23)CC1)NC1CC1 [Example 541] | 0.1 to 1 µM | > 10 µM |
| N#CCNC(=O)C(=O)NCc1ccccc1C(=O)NC1(c2cc(-c3cnn(C4CC4)c3)cc(C3CC3)c2)CC1 [Example 133] | < 0.1 µM | 1 to 10 µM |
| N#CCNC(=O)C(=O)NCc1ccccc1C(=O)NC1(c2cc(F)cc(-c3cnn(C4CC4)c3)c2F)CC1 [Example 312] | < 0.1 µM | 1 to 10 µM |
| C#CCNC(=O)C(=O)NCc1ccccc1C(=O)NC1(c2cc(Cl)cc(-c3cnc(C(F)(F)F)nc3)c2)CC1 [Example 71] | < 0.1 µM | < 1 µM |
| COc1cc(C2(NC(=O)c3ccccc3CNC(=O)C(=O)NCC#Cc3ccc(C#N)cc3OC(F)(F)F)CC2)cc2cn(C3CC3)nc12 [Example 215] | < 0.1 µM | < 1 µM |
| COC(=O)/C=C/CNC(=O)C(=O)NCc1ccccc1C(=O)N[C@H](C)c1cc(-c2cccs2)cc(C(F)(F)F)c1 [Example 461] | < 0.1 µM | < 1 µM |
| N#CCNC(=O)C(=O)NCc1ccccc1C(=O)NC1(c2ccc3sc4ccccc4c3c2)CC1 [Example 369] | < 0.1 µM | 1 to 10 µM |
| C[C@@H](C#Cc1ncccc1Cl)NC(=O)C(=O)NCc1ccccc1C(=O)NC1(c2cc(F)cc(-c3cnn(CC(C)(C)O)c3)c2)CC1 [Example 280] | < 0.1 µM | < 1 µM |
| COc1cc(C2(NC(=O)c3ccccc3CNC(=O)C(=O)N[C@@H](C)C#Cc3ccc(S(C)(=O)=O)cc3F)CC2)cc2cn(C3CC3)nc12 [Example 149] | < 0.1 µM | < 1 µM |
| CCN(OC)C(=O)/C=C/CNC(=O)C(=O)NCc1ccccc1C(=O)NC1(c2cccc3ccccc23)CC1 [Example 558] | 0.1 to 1 µM | 1 to 10 µM |
